Holding throughout (assay type): cell-based
Assay [1] has as its system A. baumanii. Kind of assay: Antimicrobial MTT viability assay, A. baumanii.
In assay [2] the test system is He. Description: Anticancer MTT viability assay, He cells. As to conditions: He cancer cell line, 48 hours incubation, 0-100 μM. For orientation: Tetrazolium assays rely on reduction of a dye to a coloured formazan, in cell work by metabolically active cells.
In assay [3] the test system is T. cruzi (ATCC 30013). Description: T. cruzi viability assay by microscopy. As to conditions: 100 μM frankiamicin A, eight days.
The subject of assay [4] is methicillin-resistant S. aureus (MRSA). Description: Antimicrobial MTT viability assay, MRSA. As to conditions: for MIC: MRS(A).
Assay [5] has as its system P. aeruginosa. Description: Antimicrobial MTT viability assay, P. aeruginosa.
Assay [6] relates to S. aureus. Description: Antimicrobial MTT viability assay, S. aureus. As to conditions: for MIC: S. aureus. On the procedure: Antimicrobial and anticancer assays were conducted by quantifying viability of cells exposed to frankiamicin A (2-fold serial diluted in DMSO) at concentrations ranging from 0-100 μM using an MTT assay (Frolova et al., 2013, J Med Chem 56:6886-6900). For antimicrobial assays, a liquid culture of each test strain was grown overnight at 37° C. in TSB media in a rotary incubator. The resulting culture was diluted 1:100 into fresh media and 100 μL aliquots were transferred to a 96-well plate. Serial diluted compound was added to individual wells and cells were incubated at 37° C. for either 6 hours or 18 hours prior to MTT assay. Anticancer assays were conducted using approximately 4000 cells incubated overnight at 37° C. in 100 μL DMEM media supplemented with 10% FBS, adding serial diluted compound, and incubating for 48 hours prior to MTT assay. Assays of T. cruzi (ATCC 30013) were conducted by growing cells unshaken at 25° C. in ATCC Medium 1029 (LIT Medium) for five days, diluting 1:10 into fresh media, adding 100 μM frankiamicin A, incubating for an additional eight days, and assessing cell viability by microscopy using an untreated control for comparison.

For assay [7], the system named is Y. pestis.
The subject of assay [8] is S. pyogenes. Kind of assay: Antimicrobial MTT viability assay, S. pyogenes.
Assay [9] relates to C. albicans. Kind of assay: Antimicrobial MTT viability assay, C. albicans. As to conditions: 0-100 μM.
Assay [10] concerns Jurk. Kind of assay: Anticancer MTT viability assay, Jurk cells. As to conditions: Jurk cancer cell line, 48 hours incubation, 0-100 μM.
Assay [11] has as its system MC. Kind of assay: Anticancer MTT viability assay, MC cells. The following applies: MC cancer cell line, 48 hours incubation, 0-100 μM.

Read-outs that look alike come from different tables or passages of the source. Where only a bound is given, the exact number is not on record here.

frankiamicin A: the MIC (commonly the lowest concentration found to suppress growth) in assay [1] (assessed after 6 h incubation) is above 1 µM; in [1] (assessed after 18 h incubation), above 1 µM; in assay [4] (assessed after 6 h incubation) it was “~”; in assay [4] (assessed after 18 h incubation), above 1 µM; in assay [5] (assessed after 6 h incubation), above 1 µM; in assay [5] (assessed after 18 h incubation) it was above 1 µM. Besides, the minimal inhibitory concentration (MIC) in assay [6] (assessed after 6 h incubation) was around 1 µM; in assay [6] (assessed after 18 h incubation), above 1 µM; in [7] (assessed after 6 h incubation) it was above 1 µM; in [7] (assessed after 18 h incubation) it was above 1 µM; in [8] (assessed after 6 h incubation), above 1 µM; in [8] (assessed after 18 h incubation) it was above 1 µM. Further, the IC50 in [2], in [3], in assay [9], in assay [10] and in assay [11] was above 1000 nM throughout. Moreover, the antimicrobial activity result in assay [4] (methicillin-resistant S. aureus (MRSA)) and in [6] (wild-type S. aureus) was “detectable antimicrobial activity” each time.
